Earlier results, collected in patent publication US20230104874A1, “HERBAL PREPARATION FOR PREVENTION AND TREATMENT OF HELICOBACTER PYLORI INFECTION” (HerbElixa DOO BEOGRAD- NOVI BEOGRAD, priority 2020, published 2023).

Key:
Gram negative bacteria = conditions: Korona-Glowniak et al. 2020
H. pylori = conditions: literature

Row | SMILES | antibacterial activity against Gram negative bacteria (Gram negative bacteria) | anti-H. pylori activity in vitro (H. pylori)
1 | Cc1ccc(C(C)C)cc1 [p-cymene] | no antibacterial activity | –
2 | CC1=CCC(C(C)C)=CC1 [γ-terpinene] | no antibacterial activity | –
3 | Cc1ccc(C(C)C)c(O)c1 [thymol] | – | high bactericidal activity
4 | Cc1ccc(C(C)C)cc1O [carvacrol] | – | bactericidal activity
